Experimental data published in patent US20090196912A1, “Pyridinylamines” (GPC Botech AG, priority 2004, published 2009).

Assays:
Assay in all cases: Generic kinase assay (33P-ATP, Myelin Basic Protein)
Type in all cases: biochemical
c-Src = c-Src (Homo sapiens, UniProt P12931); conditions: class symbol: % inhibition at 10 μM or IC50
Experimental: (§1) In order to determine the inhibitory effect of the compounds of the subject invention on various target enzymes a generic kinase assay was established.
(§2) Reactions were performed in 96-Well U-bottom microtiter plates (Greiner Bio-One; Frickenhausen/Germany, Cat. No. 650161), hereinafter designated “Assay Plates”. 10 μl of a solution comprising 40 μM Myelin Basic Protein (Invitrogen; Carlsbad, Calif./USA; Cat. No. 13228-010) and 4 μM ATP in three-fold concentrated Reaction Buffer (60 mM Tris-HCl, pH 7.5; 30 mM MgCl2; 3 mM dithiothreitol) were added into each well of the Assay Plate. 10 μl of serial dilutions of the compounds of the subject invention, dissolved in 4% DMSO, were then added into each well, except for Positive Control. Wells (C+ wells) and Negative Control Wells (C− wells). 10 μl of 4% DMSO without compounds were added to C+ and C− wells. 10 μl of a 500 mM solution of EDTA in water was then added to C− wells. Then 10 μl of a solution containing 50 μCi/ml Adenosine 5′-[γ-^33P]triphosphate in water was added to each well. To start the reaction 10 μl of the kinase to be assayed was added to each well. The optimal amount of kinase in the assay was determined to be the amount which yields to a turn-over of about 10% of ATP. Assay Plates were incubated for one hour at room temperature. Then 10 μl of a 500 mM solution of EDTA in water was added to each well except C− wells. Samples were now ready for measurement.
(§3) Measurements were preformed in 96-Well MAPH-Filter Plates (Millipore; Billerica, Mass./United States; Cat. No. MAPHNOB50), hereinafter designated “Measurement Plates”. Measurement Plates were washed with 200 μl of a 0.75% H3PO4 solution per well. The H3PO4 solution was exhausted using a Millipore vacuum station. 60 μl of a 0.75% H3PO4 solution was then added into each well, followed by the transfer of 30 μl of each well from the Assay Plate into the corresponding wells of the Measurement Plate. The Measurement Plate was incubated for 30 minutes at room temperature. Thereafter each well was washed three times with 200 μl of a 0.75% H3PO4 solution using a Millipore vacuum station. 20 μl of scintillation liquid (Supermix Liquid Szintillator; Perkin Elmer, Wellesley. Mass./United States; Cat. No. 1200-439) was then added to each well of the Measurement Plate. The plate was sealed and stored for 30 minutes in the darkness before radioactivity was quantified in a MicroBeta Scintillation Counter (Perkin Elmer, Wellesley. Mass./United States).

Abl = Abl (Homo sapiens, UniProt P00519); conditions: 1 h; class symbol: % inhibition at 10 μM or IC50; read-out: Inhibitory effect on target Abl
Sequence of Abl (P00519 whole entry, species assumed): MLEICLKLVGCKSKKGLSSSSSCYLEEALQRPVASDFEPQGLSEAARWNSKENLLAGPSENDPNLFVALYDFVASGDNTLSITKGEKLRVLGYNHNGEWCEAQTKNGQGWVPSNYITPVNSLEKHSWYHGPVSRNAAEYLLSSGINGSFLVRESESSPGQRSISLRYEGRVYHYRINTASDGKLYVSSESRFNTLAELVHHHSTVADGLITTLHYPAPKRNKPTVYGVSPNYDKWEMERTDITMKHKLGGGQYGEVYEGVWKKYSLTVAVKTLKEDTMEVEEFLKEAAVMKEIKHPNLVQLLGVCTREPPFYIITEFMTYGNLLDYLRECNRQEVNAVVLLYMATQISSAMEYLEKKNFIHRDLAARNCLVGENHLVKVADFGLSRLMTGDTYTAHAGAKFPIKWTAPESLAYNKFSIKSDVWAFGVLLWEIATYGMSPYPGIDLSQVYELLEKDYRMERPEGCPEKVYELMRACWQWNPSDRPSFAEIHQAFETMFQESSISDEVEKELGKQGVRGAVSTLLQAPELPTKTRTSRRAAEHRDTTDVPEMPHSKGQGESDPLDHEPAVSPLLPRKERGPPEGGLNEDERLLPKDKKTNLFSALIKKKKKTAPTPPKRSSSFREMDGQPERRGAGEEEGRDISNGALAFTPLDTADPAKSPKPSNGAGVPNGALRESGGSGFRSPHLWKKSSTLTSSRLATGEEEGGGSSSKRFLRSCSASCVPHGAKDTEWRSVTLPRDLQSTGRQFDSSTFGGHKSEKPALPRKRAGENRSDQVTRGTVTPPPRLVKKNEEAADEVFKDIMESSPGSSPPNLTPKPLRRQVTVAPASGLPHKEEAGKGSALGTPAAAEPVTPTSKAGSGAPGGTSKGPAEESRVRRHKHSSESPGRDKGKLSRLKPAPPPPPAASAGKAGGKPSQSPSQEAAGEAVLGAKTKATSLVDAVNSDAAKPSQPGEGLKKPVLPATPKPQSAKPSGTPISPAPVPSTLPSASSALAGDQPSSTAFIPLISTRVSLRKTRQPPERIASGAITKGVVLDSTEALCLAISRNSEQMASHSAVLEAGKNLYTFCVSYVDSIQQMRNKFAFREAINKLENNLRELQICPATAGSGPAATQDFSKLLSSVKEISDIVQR
Experimental: as §1, §2, §3

CDK5/p35 = CDK5/p35 (Homo sapiens, UniProt Q00535); conditions: class symbol: % inhibition at 10 μM or IC50
Experimental: as §1, §2, §3

cRaf = cRaf (Homo sapiens, UniProt P04049); conditions: 1 h; class symbol: % inhibition at 10 μM or IC50; read-out: Inhibitory effect on target cRaf
Experimental: as §1, §2, §3

p56Lck = p56Lck (Homo sapiens, UniProt P06239); conditions: 1 h; class symbol: % inhibition at 10 μM or IC50; read-out: Inhibitory effect on target p56Lck
Sequence of p56Lck (P06239 whole entry, species assumed): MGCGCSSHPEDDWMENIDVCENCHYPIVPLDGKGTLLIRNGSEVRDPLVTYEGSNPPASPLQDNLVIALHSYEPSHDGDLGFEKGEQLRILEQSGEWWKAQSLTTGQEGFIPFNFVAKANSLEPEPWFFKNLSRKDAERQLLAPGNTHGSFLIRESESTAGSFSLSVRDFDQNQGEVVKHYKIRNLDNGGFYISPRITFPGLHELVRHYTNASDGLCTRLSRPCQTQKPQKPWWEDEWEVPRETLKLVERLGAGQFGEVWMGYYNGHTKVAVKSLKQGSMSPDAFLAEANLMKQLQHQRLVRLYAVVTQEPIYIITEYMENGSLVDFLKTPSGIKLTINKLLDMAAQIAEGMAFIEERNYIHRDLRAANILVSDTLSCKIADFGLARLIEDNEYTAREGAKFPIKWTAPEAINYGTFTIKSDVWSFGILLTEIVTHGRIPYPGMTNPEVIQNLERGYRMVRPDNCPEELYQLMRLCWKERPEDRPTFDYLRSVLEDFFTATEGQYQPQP
Experimental: as §1, §2, §3

ROCK 2 = ROCK 2 (Homo sapiens, UniProt O75116); conditions: class symbol: % inhibition at 10 μM or IC50; for inhibition at 10 µM: 1 h, read-out: Inhibitory effect on target ROCK 2
Experimental: as §1, §2, §3

PDGFR = conditions: class symbol: % inhibition at 10 μM or IC50
Experimental: as §1, §2, §3

EGFR = EGFR (Homo sapiens, UniProt P00533); conditions: class symbol: % inhibition at 10 μM or IC50
Sequence of EGFR (P00533 25-1210, species assumed): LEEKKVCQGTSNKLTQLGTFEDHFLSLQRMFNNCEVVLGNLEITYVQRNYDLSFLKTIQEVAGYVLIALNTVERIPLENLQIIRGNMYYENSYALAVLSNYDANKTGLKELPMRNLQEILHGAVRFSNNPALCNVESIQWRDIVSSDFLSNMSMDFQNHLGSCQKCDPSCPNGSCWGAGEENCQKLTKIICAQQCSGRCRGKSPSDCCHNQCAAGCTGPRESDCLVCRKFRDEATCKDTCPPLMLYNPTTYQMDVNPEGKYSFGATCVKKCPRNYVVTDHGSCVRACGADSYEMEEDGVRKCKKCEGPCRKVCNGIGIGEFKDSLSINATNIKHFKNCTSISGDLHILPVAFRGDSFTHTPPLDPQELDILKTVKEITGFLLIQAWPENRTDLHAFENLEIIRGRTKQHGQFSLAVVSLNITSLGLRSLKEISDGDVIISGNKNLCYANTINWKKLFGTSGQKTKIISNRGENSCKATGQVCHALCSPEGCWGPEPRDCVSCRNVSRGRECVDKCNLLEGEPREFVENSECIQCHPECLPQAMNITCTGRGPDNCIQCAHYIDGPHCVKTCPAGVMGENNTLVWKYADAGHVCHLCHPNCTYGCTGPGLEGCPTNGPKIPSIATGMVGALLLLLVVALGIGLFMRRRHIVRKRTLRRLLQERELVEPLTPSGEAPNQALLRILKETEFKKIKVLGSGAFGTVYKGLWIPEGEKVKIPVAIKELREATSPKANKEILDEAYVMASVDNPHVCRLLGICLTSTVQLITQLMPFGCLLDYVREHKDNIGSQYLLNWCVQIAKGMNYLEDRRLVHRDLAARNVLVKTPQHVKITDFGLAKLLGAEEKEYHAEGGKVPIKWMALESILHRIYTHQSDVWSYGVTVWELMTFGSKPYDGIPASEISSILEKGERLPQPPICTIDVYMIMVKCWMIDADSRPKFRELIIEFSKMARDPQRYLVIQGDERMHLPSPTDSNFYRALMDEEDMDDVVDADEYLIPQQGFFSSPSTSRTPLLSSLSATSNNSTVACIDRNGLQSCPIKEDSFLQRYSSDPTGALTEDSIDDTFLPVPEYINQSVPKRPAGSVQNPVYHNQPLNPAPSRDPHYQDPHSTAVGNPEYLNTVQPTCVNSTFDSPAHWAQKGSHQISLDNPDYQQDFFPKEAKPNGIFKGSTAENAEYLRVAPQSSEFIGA
Experimental: as §1, §2, §3

CDK1/CyclinB = CDK1/CyclinB (Homo sapiens, UniProt P06493); conditions: class symbol: % inhibition at 10 μM or IC50
Sequence of CDK1/CyclinB (P06493 whole entry, species assumed): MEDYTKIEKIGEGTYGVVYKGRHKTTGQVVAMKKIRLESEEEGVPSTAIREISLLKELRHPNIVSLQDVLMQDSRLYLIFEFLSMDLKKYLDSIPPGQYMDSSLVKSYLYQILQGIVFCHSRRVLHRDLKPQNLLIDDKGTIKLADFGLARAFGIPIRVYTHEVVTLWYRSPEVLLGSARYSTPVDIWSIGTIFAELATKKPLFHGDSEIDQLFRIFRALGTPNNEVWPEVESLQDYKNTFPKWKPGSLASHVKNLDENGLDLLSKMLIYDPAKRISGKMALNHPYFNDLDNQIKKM
Sequence of CDK1/CyclinB (P14635 whole entry partner, species assumed): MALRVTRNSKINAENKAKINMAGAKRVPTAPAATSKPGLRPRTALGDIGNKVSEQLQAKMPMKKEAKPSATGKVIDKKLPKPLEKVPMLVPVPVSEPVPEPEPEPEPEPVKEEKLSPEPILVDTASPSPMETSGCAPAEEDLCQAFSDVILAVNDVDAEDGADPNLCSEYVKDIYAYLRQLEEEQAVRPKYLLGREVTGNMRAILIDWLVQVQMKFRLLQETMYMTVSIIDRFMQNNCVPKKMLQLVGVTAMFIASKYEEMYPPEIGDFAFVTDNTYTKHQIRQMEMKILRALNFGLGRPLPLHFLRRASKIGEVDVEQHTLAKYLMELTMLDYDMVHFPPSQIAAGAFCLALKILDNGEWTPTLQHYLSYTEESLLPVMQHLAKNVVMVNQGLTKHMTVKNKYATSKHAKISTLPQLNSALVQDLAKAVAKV
Experimental: as §1, §2, §3

CDK2/CyclinA = CDK2/CyclinA (Homo sapiens, UniProt P24941); conditions: class symbol: % inhibition at 10 μM or IC50
Experimental: as §1, §2, §3

RICK = RICK (Homo sapiens, UniProt O43353); conditions: class symbol: % inhibition at 10 μM or IC50
Sequence of RICK (O43353 whole entry, species assumed): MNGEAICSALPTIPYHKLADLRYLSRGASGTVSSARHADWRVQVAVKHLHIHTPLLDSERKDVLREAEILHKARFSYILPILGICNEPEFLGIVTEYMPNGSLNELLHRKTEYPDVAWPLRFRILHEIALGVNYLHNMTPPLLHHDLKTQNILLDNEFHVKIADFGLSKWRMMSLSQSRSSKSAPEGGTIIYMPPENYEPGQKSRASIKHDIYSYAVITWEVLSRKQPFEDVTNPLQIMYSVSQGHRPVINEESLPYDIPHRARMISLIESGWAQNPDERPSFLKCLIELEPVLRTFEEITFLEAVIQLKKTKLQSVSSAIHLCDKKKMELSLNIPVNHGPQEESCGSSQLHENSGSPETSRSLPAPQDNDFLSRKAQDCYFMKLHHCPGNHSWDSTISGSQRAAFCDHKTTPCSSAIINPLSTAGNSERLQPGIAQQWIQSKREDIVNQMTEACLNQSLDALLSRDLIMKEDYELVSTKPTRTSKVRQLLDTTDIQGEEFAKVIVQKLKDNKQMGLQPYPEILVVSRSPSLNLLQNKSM
Experimental: as §1, §2, §3

GSK-3beta = GSK-3beta (Homo sapiens, UniProt P49841); conditions: class symbol: % inhibition at 10 μM or IC50
Experimental: as §1, §2, §3

c-kit = c-kit (Homo sapiens, UniProt P10721); conditions: 1 h; class symbol: % inhibition at 10 μM or IC50; read-out: Inhibitory effect on target c-kit
Sequence of c-kit (P10721 26-976): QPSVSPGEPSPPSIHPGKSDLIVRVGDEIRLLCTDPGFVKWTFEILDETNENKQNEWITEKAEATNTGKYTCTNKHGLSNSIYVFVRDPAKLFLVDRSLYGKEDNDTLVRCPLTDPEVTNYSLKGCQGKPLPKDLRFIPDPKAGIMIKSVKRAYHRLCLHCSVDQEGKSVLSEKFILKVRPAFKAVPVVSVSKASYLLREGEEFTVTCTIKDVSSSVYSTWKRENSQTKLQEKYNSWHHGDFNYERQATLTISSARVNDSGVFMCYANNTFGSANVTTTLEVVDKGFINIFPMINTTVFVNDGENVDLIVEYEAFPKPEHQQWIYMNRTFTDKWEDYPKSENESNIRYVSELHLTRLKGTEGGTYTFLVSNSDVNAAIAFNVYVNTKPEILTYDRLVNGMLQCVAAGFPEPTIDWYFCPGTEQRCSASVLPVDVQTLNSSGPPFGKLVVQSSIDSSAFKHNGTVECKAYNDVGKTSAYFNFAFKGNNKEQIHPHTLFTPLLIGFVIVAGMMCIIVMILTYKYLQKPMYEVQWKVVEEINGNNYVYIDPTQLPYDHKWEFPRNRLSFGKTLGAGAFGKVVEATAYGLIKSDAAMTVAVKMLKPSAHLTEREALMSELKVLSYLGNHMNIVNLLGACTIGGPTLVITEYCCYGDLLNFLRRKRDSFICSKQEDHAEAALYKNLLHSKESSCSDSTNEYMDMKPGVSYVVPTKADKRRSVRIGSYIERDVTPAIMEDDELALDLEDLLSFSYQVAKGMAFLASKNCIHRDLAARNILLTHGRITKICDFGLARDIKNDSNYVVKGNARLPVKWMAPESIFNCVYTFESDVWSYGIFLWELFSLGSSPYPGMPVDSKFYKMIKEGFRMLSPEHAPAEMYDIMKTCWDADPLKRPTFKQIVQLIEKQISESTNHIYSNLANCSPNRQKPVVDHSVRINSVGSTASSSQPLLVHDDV
Experimental: as §1, §2, §3

UL97 = UL97 (Human cytomegalovirus, UniProt P16788); conditions: class symbol: % inhibition at 10 μM or IC50
Experimental: as §1, §2, §3

p38 = p38 (Homo sapiens, UniProt Q16539); conditions: class symbol: % inhibition at 10 μM or IC50
Experimental: as §1, §2, §3

IKKb = target: T1, IKKb (Homo sapiens, UniProt O14920); conditions: class symbol: % inhibition at 10 μM or IC50
T1 sequence (O14920 1-756): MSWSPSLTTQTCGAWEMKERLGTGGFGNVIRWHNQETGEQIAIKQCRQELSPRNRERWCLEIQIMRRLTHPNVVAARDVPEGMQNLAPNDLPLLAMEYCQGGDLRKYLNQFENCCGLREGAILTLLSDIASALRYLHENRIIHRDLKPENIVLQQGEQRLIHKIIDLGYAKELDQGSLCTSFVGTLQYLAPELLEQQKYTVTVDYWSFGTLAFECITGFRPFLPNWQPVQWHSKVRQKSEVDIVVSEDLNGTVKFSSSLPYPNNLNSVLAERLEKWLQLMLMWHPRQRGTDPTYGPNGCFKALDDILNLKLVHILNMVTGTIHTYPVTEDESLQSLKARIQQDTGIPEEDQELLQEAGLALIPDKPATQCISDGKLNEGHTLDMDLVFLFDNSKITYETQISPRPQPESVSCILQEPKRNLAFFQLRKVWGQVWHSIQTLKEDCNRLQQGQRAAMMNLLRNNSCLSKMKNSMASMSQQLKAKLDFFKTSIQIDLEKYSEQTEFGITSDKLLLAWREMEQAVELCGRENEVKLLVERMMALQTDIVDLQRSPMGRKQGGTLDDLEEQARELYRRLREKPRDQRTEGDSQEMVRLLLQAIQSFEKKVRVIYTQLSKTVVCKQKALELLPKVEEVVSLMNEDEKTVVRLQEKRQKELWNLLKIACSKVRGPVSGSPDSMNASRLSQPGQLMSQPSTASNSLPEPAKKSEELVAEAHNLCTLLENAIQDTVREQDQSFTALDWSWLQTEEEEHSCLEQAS
Experimental: as §1, §2, §3

Structure (SMILES) | inhibition at 10 µM (Abl) [%] | inhibition at 10 µM (cRaf) [%] | inhibition at 10 µM (p56Lck) [%] | inhibition at 10 µM (ROCK 2) [%] | Inhibitory effect on target RICK (RICK) | inhibition at 10 µM (c-kit) [%] | Inhibitory effect on target ROCK 2 (ROCK 2) | Inhibitory effect on target UL97 (UL97) | Inhibitory effect on target c-Src (c-Src) | Inhibitory effect on target CDK5/p35 (CDK5/p35) | Inhibitory effect on target PDGFR (PDGFR) | Inhibitory effect on target EGFR (EGFR) | Inhibitory effect on target CDK1/CyclinB (CDK1/CyclinB) | Inhibitory effect on target CDK2/CyclinA (CDK2/CyclinA) | Inhibitory effect on target GSK-3beta (GSK-3beta) | Inhibitory effect on target p38 (p38) | Inhibitory effect on target IKKb (IKKb)
Oc1ccc(-c2cncc(NCc3cccc(O)c3)c2)cc1 [Compound 212, 3-{[5-(4-Hydroxy-phenyl)-pyridin-3-ylamino]-methyl}-phenol] | 50 to 90 | 50 to 90 | > 90 | – | C (C: IC50 measured: <1 μM) | > 90 | C (C: IC50 measured: <1 μM) | – | – | – | A (A: 50-90% inhibition at 10 μM enzyme concentration) | A (A: 50-90% inhibition at 10 μM enzyme concentration) | – | B (B: >90% inhibition at 10 μM enzyme concentration) | A (A: 50-90% inhibition at 10 μM enzyme concentration) | – | –
CC(=O)Nc1cccc(-c2cncc(NCc3cccc(O)c3)c2)c1 [Compound 221, N-{3-[5-(3-Hydroxy-benzylamino)-pyridin-3-yl]-phenyl}-acetamide] | 50 to 90 | 50 to 90 | > 90 | – | C (C: IC50 measured: <1 μM) | > 90 | – | – | – | – | A (A: 50-90% inhibition at 10 μM enzyme concentration) | A (A: 50-90% inhibition at 10 μM enzyme concentration) | – | – | – | A (A: 50-90% inhibition at 10 μM enzyme concentration) | –
O=C(Nc1cncc(-c2cccc(O)c2)c1)c1cccc(O)c1 [Compound 234, 3-Hydroxy-N-[5-(3-hydroxy-phenyl)-pyridin-3-yl]-benzamide] | 50 to 90 | 50 to 90 | > 90 | – | C (C: IC50 measured: <1 μM) | 50 to 90 | – | – | B (B: >90% inhibition at 10 μM enzyme concentration) | – | B (B: >90% inhibition at 10 μM enzyme concentration) | B (B: >90% inhibition at 10 μM enzyme concentration) | – | – | – | – | A (A: 50-90% inhibition at 10 μM enzyme concentration)
CC(=O)Nc1cccc(-c2cncc(Nc3ccc(C#N)cc3)c2)c1 [Compound 205, N-{3-[5-(4-Cyano-phenylamino)-pyridin-3-yl]-phenyl}-acetamide] | – | – | – | – | C (C: IC50 measured: <1 μM) | – | – | – | – | A (A: 50-90% inhibition at 10 μM enzyme concentration) | A (A: 50-90% inhibition at 10 μM enzyme concentration) | – | A (A: 50-90% inhibition at 10 μM enzyme concentration) | – | – | – | A (A: 50-90% inhibition at 10 μM enzyme concentration)

Further lines, with some results ahead:

inhibition at 10 µM (Abl) [%] | inhibition at 10 µM (cRaf) [%] | inhibition at 10 µM (p56Lck) [%] | inhibition at 10 µM (ROCK 2) [%] | Inhibitory effect on target RICK (RICK) | inhibition at 10 µM (c-kit) [%] | Inhibitory effect on target ROCK 2 (ROCK 2) | Inhibitory effect on target UL97 (UL97) | Structure (SMILES) | Inhibitory effect on target c-Src (c-Src) | Inhibitory effect on target CDK5/p35 (CDK5/p35) | Inhibitory effect on target PDGFR (PDGFR) | Inhibitory effect on target EGFR (EGFR) | Inhibitory effect on target CDK1/CyclinB (CDK1/CyclinB) | Inhibitory effect on target CDK2/CyclinA (CDK2/CyclinA) | Inhibitory effect on target GSK-3beta (GSK-3beta) | Inhibitory effect on target p38 (p38) | Inhibitory effect on target IKKb (IKKb)
50 to 90 | 50 to 90 | 50 to 90 | 50 to 90 | C (C: IC50 measured: <1 μM) | – | – | – | COc1cccc(-c2cncc(NCc3cccc(O)c3)c2)c1 [Compound 239, 3-{[5-(3-Methoxy-phenyl)-pyridin-3-ylamino]-methyl}-phenol] | B (B: >90% inhibition at 10 μM enzyme concentration) | A (A: 50-90% inhibition at 10 μM enzyme concentration) | B (B: >90% inhibition at 10 μM enzyme concentration) | A (A: 50-90% inhibition at 10 μM enzyme concentration) | B (B: >90% inhibition at 10 μM enzyme concentration) | C (C: IC50 measured: <1 μM) | – | – | –
– | – | – | 50 to 90 | C (C: IC50 measured: <1 μM) | – | – | C (C: IC50 measured: <1 μM) | CN(Cc1cccc(O)c1)c1cncc(-c2cccc(O)c2)c1 [Compound 241, 3-{5-[(3-Hydroxy-benzyl)-methyl-amino]-pyridin-3-yl}-phenol] | – | – | – | – | – | – | – | – | –
– | 50 to 90 | – | – | C (C: IC50 measured: <1 μM) | – | – | C (C: IC50 measured: <1 μM) | Nc1cccc(CNc2cncc(-c3cccc(O)c3)c2)c1 [Compound 245, 3-[5-(3-Amino-benzylamino)-pyridin-3-yl]-phenol] | – | – | – | – | – | – | – | – | –
– | – | – | – | C (C: IC50 measured: <1 μM) | – | – | – | CC(=O)Nc1cccc(-c2cncc(Nc3ccccc3F)c2)c1 [Compound 237, N-{3-[5-(2-Fluoro-phenylamino)-pyridin-3-yl]-phenyl}-acetamide] | – | – | A (A: 50-90% inhibition at 10 μM enzyme concentration) | A (A: 50-90% inhibition at 10 μM enzyme concentration) | A (A: 50-90% inhibition at 10 μM enzyme concentration) | – | – | – | A (A: 50-90% inhibition at 10 μM enzyme concentration)
